Reference: patent publication US10174068B2, “Methods of functionalization and reagents used in such methods using an aza-isatoic anhydride or a derivative thereof, biological molecules thus treated and kits” (BIOMERIEUX, priority 2012, dated 2019)
Blank lines part the entries; values can stand above or below the compound they belong to.

Assays:
[1] = system: ORN with 27 bases; test: Functionalization of a 27-mer ORN, degree of functionalization (Df) by HPLC after nuclease P1/alkaline phosphatase hydrolysis
Procedure: A comparison of the reactivity of the aza-isatoic anhydride derivative 14 relative to the reference isatoic derivative, Biot-peg4-SS-IAMe as described in WO-A-2012/076794, with respect to a 27-base model ORN (seq: 5′-AAC-CGC-AGU-GAC-ACC-CUC-AUC-AUU-ACA-3′, Eurogentec, Liege Science Park, Belgium) is carried out. For this, a fixed amount of ORN is reacted with an isatoic anhydride derivative conjugated with a molecule of interest, at 65° C. and at room temperature. The reaction is monitored by HPLC at 260 nm as was described previously in patent application WO-A-2012/076794 in example 3. This analysis makes it possible to detect the disappearance of the peak corresponding to the initial ORN and the appearance of peaks corresponding to the acylated ORN. These products have a greater retention time, and an absorption spectrum corresponding both to that of the ORN, and to that of the functionalizing reagent.
For precise evaluation of the degree of functionalization (Df), the ORN population (labelled and unlabelled) is separated from the surplus marker by precipitation with acetone/lithium perchlorate. Then the ORNs thus obtained are submitted to hydrolysis with nuclease P1 (Aldrich, Saint Louis, USA) and with alkaline phosphatase (Aldrich, Saint Louis, USA) in order to hydrolyse the phosphate diester bonds of the ORN.
LC-MS analysis of this mixture then allows several populations to be characterized and identified: • unlabelled ribonucleosides; • labelled mono-nucleoside adducts, which differ very clearly by a longer retention time, and by a UV spectrum characteristic of the nucleic acids and of the functionalizing reagent; • dinucleotides acylated at 2′ which, because of the anthranilate group substituted with the group of interest at 2′, cannot be cleaved by the nuclease P1; • per-acylated 2′OH trinucleotides or tetranucleotides, which may form theoretically but which are statistically very little represented (as this would then require two or three consecutive acylations of 2′OH), are not investigated.
The degree of functionalization of the ORN (Df) is evaluated by measuring: • the area corresponding to the terminal mononucleoside adducts (functionalized at 2′ and at 3′) and the area corresponding to the acylated dinucleotides (functionalized internally on the 2′OH) • compared to the area of the peaks corresponding to the four ribonucleosides.
In a standard experiment, the equivalent of 8 nmol of an ORN with 27 bases (5′-AAC-CGC-AGU-GAC-ACC-CUC-AUC-AUU-ACA-3′, Eurogentec, Liege Science Park, Belgium) in solution in water is first dried in a centrifugal evaporator (RCT 60, Jouan, St Herblain, France) in a 2-mL plastic Eppendorf tube. The dry residue obtained is first dissolved in 40 μL of water, then 20 μl of a buffered solution is added (in the example, a 1M triethylammonium acetate buffer solution, pH 7, Aldrich, St Louis, USA ref: 09748-100 ml). Finally, 20 μl of a solution of an isatoic anhydride derivative at 120 mM in DMSO is incorporated in the preceding solution (either the reference molecule Biot-peg4-SS-IAMe as described in FR 1060102 or the aza-isatoic derivative Biot-peg4-SS-azaIAMe (14) in this example). The mixture is incubated for 60 minutes at room temperature or at 65° C. in a stove on a rack pre-equilibrated in temperature. To remove the salts and the surplus marker, the mixture is then purified by triple precipitation in 1.2 mL of an acetone/LiClO4 180 mM 75/25 mixture. […]

[2] = system: mixture of HIV RNA transcripts and genomic calf DNA; test: Selective extraction of HIV RNA transcripts from a mixture with genomic DNA (functionalization/capture/cleavage/elution, Qubit quantification); conditions: tag at 1.5 mM; for Final DNA/RNA ratio: after elution step 4
Procedure: For this, two biological models of nucleic acids were selected, HIV transcripts for RNA and genomic calf DNA. In order to compare the efficacy of the aza-isatoic derivative 14, these tests were also carried out on the reference compound Biot-peg4-SS-IAMe at 65° C. and at room temperature.
The nucleic acids used in this example are as follows: • HIV transcripts WT 1500 bases, at 1.94 μg/μL. • gDNA calf thymus, SIGMA (Saint Louis, USA), ref. D4764-5UN, at 1.92 μg/μL.
The following reagents are put in three 0.2-ml plastic tubes (Table 2 below):
In each case, the final concentrations of TEAAc and of functionalizing reagent are 250 mM and 1.5 mM respectively.
The three tubes are incubated for 1 hour at room temperature or at 65° C. on a heated rack.
Purification of the nucleic acids for each test was carried out in 5 different tubes of equivalent volume, in order to meet the optimum conditions for this step (i.e. 1 mg of magnetic silica per 2 μg of nucleic acids). Thus, each test is distributed in five 1.5-mL Eppendorf tubes i.e. 5 times 2.1 μL (2 μg of AN). 900 μL of lysis buffer (Easy Mag buffer, ref. 280134, bioMerieux, Marcy l'Etoile, France) and 50 μL of magnetic silica particles (EasyMAG silica, ref. 280133, bioMerieux, Marcy l'Etoile, France) are added to each tube. The latter are immediately stirred by the vortex effect after adding the silica, and then incubated for 10 minutes at room temperature. After magnetization on a DYNAL magnet, the supernatants are removed by aspiration with a pipette. For the next washing steps, the tubes are always stirred by the vortex effect and magnetized, followed by removal of the supernatant. A first washing is carried out with 500 μL of washing buffer 1 (Easy Mag buffer, ref. 280130, bioMerieux, Marcy l'Etoile, France). Two washings are then carried out with 900 μL and then 500 μL of washing buffer 2 (Easy Mag buffer, ref. 280131, bioMerieux, Marcy l'Etoile, France). Finally, a last washing step is carried out with 500 μL of elution buffer 3 (Easy Mag buffer, ref. 280132, bioMerieux, Marcy l'Etoile, France) at room temperature. […] The latter are analysed with the Qubit® Fluorometer instrument, ref. Q32857, Invitrogen (Carlsbad, Calif., United States of America), and using the kits Quant-iT RNA Assay Kit 5-100 ng (ref. Q32855, Invitrogen, Carlsbad, Calif., United States of America), and Quant-iT dsDNA HS Assay Kit 0.2-100 ng (ref. Q32854, Invitrogen, Carlsbad, Calif., United States of America). These analysis kits allow an RNA/DNA ratio to be determined in a mixture.
To perform this capture on magnetic particles, it is necessary to store each of the tests divided into 5 tubes in the preceding purification step. […] This supernatant is analysed as before with the Qubit® Fluorometer. […]

[3] = system: ODN with 27 bases; test: Functionalization of a 27-mer ODN (chemo-selectivity RNA versus DNA); conditions: room temperature, 1 hour, reagent 30 mM, DMSO/TEAAc 250 mM pH 7 25/75
Procedure: 8 nmol of ODN with 27 bases, Seq: 5′-AAC-CGC-AGT-GAC-ACC-CTC-ATC-ATT-ACA-3′ (Eurogentec, Liege Science Park, Belgium) or 8 nmol of an ORN with 27 bases, Seq: 5′-AAC-CGC-AGU-GAC-ACC-CUC-AUC-AUU-ACA-3′ (Eurogentec, Liege Science Park, Belgium) is reacted with the aza-isatoic anhydride derivative (14) at 30 mM in a mixture DMSO/buffer TEAAc (250 mM pH 7) 25/75, for 1 hour at room temperature. After precipitation with acetone and hydrolysis with nuclease P1 and alkaline phosphatase, the hydrolysed fragments are analysed by LC-MS, as described in example 3. An example of chromatograms for monitoring the reaction of the ODN or of the ORN with compound 14 is shown in FIG. 6, where traces A, B and C correspond respectively to the initial ORN, the ORN functionalized with compound 14 and precipitated, and the ORN functionalized with 14, precipitated and hydrolysed. Traces D, E and F represent the same results obtained with the ODN.

[4] = 65° C., 60 minutes, TEAAc pH 7, reagent 120 mM in DMSO diluted in the mixture
[5] = room temperature, 1 hour, TEAAc pH 7, reagent 30 mM

melting point: 125 °C
Compound: Cn1c(=O)oc(=O)c2cc(CCC(=O)NCCSSCCNC(=O)CCCCC3SCC4NC(=O)NC43)cnc21 (centres unmarked) [Compound 12, 5-[(3AS,6AR)-2-OXO-HEXAHYDRO-1H-THIENO[3,4-D]IMIDAZOLIDIN-4-YL]-N-(2-{[2-(3-{1-METHYL-2,4-DIOXO-1H,2H,4H-PYRIDO[2,3-D][1,3]OXAZIN-6-YL}PROPANAMIDO)ETHYL]DISULPHANYL}ETHYL)PENTANAMIDE]

Compound: O=C(CCCCC1SCC2NC(=O)NC21)NCCOCCOCCOCCC(=O)NCCSSCCC(=O)Nc1cccc2[nH]c(=O)oc(=O)c12 (centres unmarked) [Biot-peg4-SS-IAMe, reference compound]
uncorrected degree of functionalization (Df) of the ORN [1, 4]: 7.5%
uncorrected degree of functionalization (Df) of the ORN [1, 5]: 1%
S* (intermediate selectivity index) ([2]; functionalization at 65° C.): 6
Final DNA/RNA ratio ([2]; functionalization at 65° C.): 14/86

Compound: Cn1c(=O)oc(=O)c2cc(CCC(=O)NCCSSCCNC(=O)CCOCCOCCOCCOCCNC(=O)CCCCC3SCC4NC(=O)NC43)cnc21 [Compound 14, 1-{5-[(3aS,6aR)-2-oxo-hexahydro-1H-thieno[3,4-d]imidazolidin-4-yl]pentanamido}-N-(2-{[2-(3-{1-methyl-2,4-dioxo-1H,2H,4H-pyrido[2,3-d][1,3]oxazin-6-yl}propanamido)ethyl]disulphanyl}ethyl)-3,6,9,12-tetraoxapentadecan-15-amide]
uncorrected degree of functionalization of the ODN [3]: 0.5%
factor of increase of reactivity with respect to an oligoribonucleotide relative to the reference compound ([1]; 65° C.): 1.8
uncorrected degree of functionalization (Df) of the ORN [1, 4]: 13.5%
uncorrected degree of functionalization (Df) of the ORN [1, 5]: 7.8%
S* (intermediate selectivity index) ([2]; functionalization at Rt): 30
Final DNA/RNA ratio ([2]; functionalization at Rt): 4/96
